The results in this text go back to patent US4393225A, “AI-77 Compounds and pharmaceutically acceptable salts thereof” (Asahi Kasei Kogyo Kabushiki Kaisha, priority 1979, dated 1983).

Where two headings read alike, the source gives them in different places.

For the assay, the system named is ulcer. Description: Anti-ulcer test (restraint and water immersion ulcer in rats, i.p.). The format is in vivo, Male Wistar rats. The note with it: Rattus norvegicus, ip, read-out: % Inhibition of Ulcer. In short, it runs like this: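 Compound given intraperitoneally in saline to 24 h-fasted male Wistar rats about 150 g, followed after one hour by 6 h restraint with water immersion at 21 °C. Gastric lesions graded 0, 0.5, 1, 2 or 3 on microscopic inspection and converted to percent ulcer inhibition.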

On to `CC(Br)=C(C)C(=O)NC1CC(=O)OC1C(O)C(=O)NC(CC(C)C)C1Cc2cccc(O)c2C(=O)O1` (centres unmarked) [IIIa-1-80], for which the inhibition in vivo at 50 mg/kg (50 mg/kg i.p.) turned out to be 66%.

As for `CNC(CC(=O)O)C(O)C(OC)C(=N)NC(CC(C)C)C1Cc2cccc(OC(C)=O)c2C(=O)O1` (centres unmarked) [Vb-27-1], the inhibition in vivo at 50 mg/kg (50 mg/kg i.p.) was determined as 66%. For `CCOc1cccc2c1C(=O)OC(C(CC(C)C)NC(=O)C(OC(C)=O)C1OC(=O)CC1NC(=O)c1ccc(C)cc1)C2` (centres unmarked) [IIIa-6-8], for the setting “50 mg/kg i.p.”, the inhibition in vivo at 50 mg/kg came out at 22%. `CNC(CC(N)=O)C(O)C(OC(C)=O)C(=O)NC(CC(C)C)C1Cc2cccc(OC(C)=O)c2C(=O)O1` (centres unmarked) [VII-21-1]: the inhibition in vivo at 25 mg/kg (25 mg/kg i.p.) is 66%.

Turning to `CC(C)CC(NC(=O)C(O)C1OC(=O)CC1NC(=O)CCCC1CCCCC1)C1Cc2cccc(O)c2C(=O)O1` (centres unmarked) [IIIa-1-19], the inhibition in vivo at 50 mg/kg (50 mg/kg i.p.) was 66%. As to `CCCNC(CC(N)=O)C(O)C(O)C(=O)NC(CC(C)C)C1Cc2cccc(O)c2C(=O)O1` (centres unmarked) [VII-10-1], the inhibition in vivo at 25 mg/kg (25 mg/kg i.p.) came out at 94%. Take `CCCCCSCC(=O)NC1CC(=O)OC1C(O)C(=O)NC(CC(C)C)C1Cc2cccc(OCC)c2C(=O)O1` (centres unmarked) [IIIa-5-44]: the inhibition in vivo at 50 mg/kg (50 mg/kg i.p.) is 33%. Take `CCOc1cccc2c1C(=O)OC(C(CC(C)C)NC(=O)C(O)C1OC(=O)CC1NC(=O)C(=O)CC)C2` (centres unmarked) [IIIa-5-32]: the inhibition in vivo at 50 mg/kg (50 mg/kg i.p.) amounted to 44%.

On to `CCCCOc1cccc2c1C(=O)OC(C(CC(C)C)NC(=O)C(OC)C1OC(=O)CC1NC(C)=O)C2` (centres unmarked) [IIIa-7-16], for which, under “50 mg/kg i.p.”, the inhibition in vivo at 50 mg/kg amounted to 33%. The same measure, in the same setting: with `CCOc1cccc2c1C(=O)OC(C(CC(C)C)NC(=O)C(OC(C)=O)C1OC(=O)CC1NC)C2` (centres unmarked) [IIIa-32-1] the figure was 56%; with `C/C=C/C(=O)Oc1cccc2c1C(=O)OC(C(CC(C)C)NC(=O)C(O)C1C=CC(=O)O1)C2` (centres unmarked) [IVa-3-18], 33%; with `CCOc1cccc2c1C(=O)OC(C(CC(C)C)NC(=O)C(OC(=O)CC)C1OC(=O)CC1NC(=O)C(Cl)(Cl)Cl)C2` (centres unmarked) [IIIa-6-13], 33%. Take `CC(C)CC(NC(=O)C(OC(=O)C(Cl)(Cl)Cl)C1OC(=O)CC1NC(=O)C(Cl)(Cl)Cl)C1Cc2cccc(O)c2C(=O)O1` (centres unmarked) [IIIa-2-1]: the inhibition in vivo at 50 mg/kg (50 mg/kg i.p.) came to 44%. As for `CCCCCCCCCCCCCCCCCCOc1cccc2c1C(=O)OC(C(CC(C)C)NC(=O)C(O)C1OC(=O)CC1NC)C2` (centres unmarked) [IIIa-31-3], the inhibition in vivo at 50 mg/kg (50 mg/kg i.p.) amounted to 78%. With `CCCCOc1cccc2c1C(=O)OC(C(CC(C)C)NC(=O)C(OCCCC)C1OC(=O)CC1N)C2` (centres unmarked) [IIIa-15-2], the inhibition in vivo at 50 mg/kg (50 mg/kg i.p.) was determined as 56%.

With `COC(C)CC(=O)NC1CC(=O)OC1C(O)C(=O)NC(CC(C)C)C1Cc2cccc(OC(C)=O)c2C(=O)O1` (centres unmarked) [IIIa-4-6], the inhibition in vivo at 50 mg/kg (50 mg/kg i.p.) was determined as 44%. For `CCOc1cccc2c1C(=O)OC(C(CC(C)C)NC(=O)C(O)C1OC(=O)CC1NC(=O)C(Cl)(Cl)Cl)C2` (centres unmarked) [IIIa-5-13], the inhibition in vivo at 50 mg/kg (50 mg/kg i.p.) came to 33%. Consider `CCOc1cccc2c1C(=O)OC(C(CC(C)C)NC(=O)C(OCC)C1OC(=O)CC1NC(C)=O)C2` (centres unmarked) [IIIa-7-2], for which the inhibition in vivo at 50 mg/kg (50 mg/kg i.p.) came to 33%. For the compound `CC(C)CC(NC(=O)C(O)C1C=CC(=O)O1)C1Cc2cccc(OCCCBr)c2C(=O)O1` (centres unmarked) [IVa-4-19], the inhibition in vivo at 50 mg/kg (50 mg/kg i.p.) worked out at 44%. In the case of `CCCCCCCCCCCCCCCCCCOc1cccc2c1C(=O)OC(C(CC(C)C)NC(=O)C(OCCCC)C1OC(=O)CC1N)C2` (centres unmarked) [IIIa-15-3], the inhibition in vivo at 50 mg/kg (50 mg/kg i.p.) turned out to be 44%. In the case of `CC(C)CNC1CC(=O)OC1C(O)C(=O)NC(CC(C)C)C1Cc2cccc(OCC(C)C)c2C(=O)O1` (centres unmarked) [IIIa-22-4], the inhibition in vivo at 50 mg/kg (50 mg/kg i.p.) was 94%. Regarding `CCOc1cccc2c1C(=O)OC(C(CC(C)C)NC(=O)C(O)C1OC(=O)CC1NC(=O)Cc1ccccc1)C2` (centres unmarked) [IIIa-5-20], the inhibition in vivo at 50 mg/kg (50 mg/kg i.p.) was 44%. As to `CCCC(=O)Oc1cccc2c1C(=O)OC(C(CC(C)C)NC(=O)C(OC(C)=O)C(O)C(N)CC(N)=O)C2` (centres unmarked) [VII-3-2], under “25 mg/kg i.p.”, the inhibition in vivo at 25 mg/kg stood at 78%. Take `CCOc1cccc2c1C(=O)OC(C(CC(C)C)NC(=O)C(O)C1OC(=O)CC1NC(=O)c1ccccc1)C2` (centres unmarked) [IIIa-5-16]: the inhibition in vivo at 50 mg/kg (50 mg/kg i.p.) came to 33%. On the same count and under the same terms, the result for `CCCCCCCCCCCC(=O)OC(C(=O)NC(CC(C)C)C1Cc2cccc(O)c2C(=O)O1)C1C=CC(=O)O1` (centres unmarked) [IVa-1-10] reads 33%. For `CC(C)CC(NC(=O)C(O)C1OC(=O)CC1NCCCCCO)C1Cc2cccc(O)c2C(=O)O1` (centres unmarked) [IIIa-18-52], the inhibition in vivo at 50 mg/kg (50 mg/kg i.p.) turned out to be 94%. On to `CCCC(=O)NC1CC(=O)OC1C(OC(=O)CCC)C(=O)NC(CC(C)C)C1Cc2cccc(O)c2C(=O)O1` (centres unmarked) [IIIa-2-11], for which the inhibition in vivo at 50 mg/kg (50 mg/kg i.p.) was found to be 33%. Take `CC(C)CC(NC(=O)C(O)C1OC(=O)CC1NCCCCBr)C1Cc2cccc(O)c2C(=O)O1` (centres unmarked) [IIIa-18-26]: the inhibition in vivo at 50 mg/kg worked out at 94%. As for `CC(C)CC(NC(=O)C(O)C1OC(=O)CC1NC(=O)c1ccccc1)C1Cc2cccc(O)c2C(=O)O1` (centres unmarked) [IIIa-1-14], the inhibition in vivo at 50 mg/kg (50 mg/kg i.p.) came out at 56%. For `CCCCCCCCC=CCCCCCCCC(=O)Oc1cccc2c1C(=O)OC(C(CC(C)C)NC(=O)C(O)C1OC(=O)CC1N)C2` (centres unmarked) [IIIa-12-4], the inhibition in vivo at 50 mg/kg (50 mg/kg i.p.) was determined as 72%.

With `CCCCCCC(=O)NC1CC(=O)OC1C(O)C(=O)NC(CC(C)C)C1Cc2cccc(O)c2C(=O)O1` (centres unmarked) [IIIa-1-8], the inhibition in vivo at 50 mg/kg (50 mg/kg i.p.) stood at 66%. Consider `CC(C)CC(NC(=N)C(OC(=O)CCC1CCCC1)C(O)C(N)CC(=O)O)C1Cc2cccc(O)c2C(=O)O1` (centres unmarked) [Vb-2-2], for which the inhibition in vivo at 50 mg/kg (50 mg/kg i.p.) amounted to 56%.

For `CC(C)CC(=O)OC(C(=O)NC(CC(C)C)C1Cc2cccc(O)c2C(=O)O1)C1C=CC(=O)O1` (centres unmarked) [IVa-1-5], the inhibition in vivo at 50 mg/kg (50 mg/kg i.p.) worked out at 44%. For `CCCCCNC(CC(N)=O)C(O)C(O)C(=O)NC(CC(C)C)C1Cc2cccc(O)c2C(=O)O1` (centres unmarked) [VII-10-2], the inhibition in vivo at 25 mg/kg stood at 94%.

For `CCOC(C(=O)NC(CC(C)C)C1Cc2cccc(O)c2C(=O)O1)C1OC(=O)CC1N` (centres unmarked) [IIIa-16-7], where the note is “50 mg/kg i.p.”, the inhibition in vivo at 50 mg/kg was 72%. For `CCNC(CC(N)=O)C(O)C(OC(=O)CC)C(=O)NC(CC(C)C)C1Cc2cccc(OC(=O)C(C)C)c2C(=O)O1` (centres unmarked) [VII-12-1], the inhibition in vivo at 25 mg/kg (25 mg/kg i.p.) was found to be 56%. On to `CNC1CC(=O)OC1C(OC)C(=O)NC(CC(C)C)C1Cc2cccc(O)c2C(=O)O1` (centres unmarked) [IIIa-34-1], for which, where the note is “50 mg/kg i.p.”, the inhibition in vivo at 50 mg/kg stood at 66%. Regarding `CC(=O)Oc1cccc2c1C(=O)OC(C(CC(C)C)NC(=O)C(O)C1OC(=O)CC1NCC(C)C)C2` (centres unmarked) [IIIa-21-2], where the note is “50 mg/kg i.p.”, the inhibition in vivo at 50 mg/kg came out at 72%. As to `CC(C)CC(NC(=O)C(O)C1OC(=O)CC1N)C1Cc2cccc(OC(=O)C3CCCO3)c2C(=O)O1` (centres unmarked) [IIIa-12-5], the inhibition in vivo at 50 mg/kg (50 mg/kg i.p.) stood at 78%. Take `CCOc1cccc2c1C(=O)OC(C(CC(C)C)NC(=O)C(O)C1OC(=O)CC1NC(=O)Cc1ccc3ccccc3c1)C2` (centres unmarked) [IIIa-5-62]: where the note is “50 mg/kg i.p.”, the inhibition in vivo at 50 mg/kg was 33%. Regarding `CC(C)CC(=O)Oc1cccc2c1C(=O)OC(C(CC(C)C)NC(=O)C(O)C1C=CC(=O)O1)C2` (centres unmarked) [IVa-3-11], the inhibition in vivo at 50 mg/kg (50 mg/kg i.p.) was 44%. `CC(=O)Oc1cccc2c1C(=O)OC(C(CC(C)C)NC(=O)C(OC(C)=O)C1OC(=O)CC1NC(=O)C1CCCO1)C2` (centres unmarked) [IIIa-3-6]: under “50 mg/kg i.p.”, the inhibition in vivo at 50 mg/kg is 33%. Same read-out and setting: with `CNC1CC(=O)OC1C(OC(=O)CC(C)C)C(=O)NC(CC(C)C)C1Cc2cccc(O)c2C(=O)O1` (centres unmarked) [IIIa-28-2] the figure was 66%; with `CCCCOC(C(=O)NC(CC(C)C)C1Cc2cccc(OC(C)=O)c2C(=O)O1)C1OC(=O)CC1NCC` (centres unmarked) [IIIa-26-1], 66%.
